Data from PubChem BioAssay AID330 (DTP/NCI, 2004).
Where “and” joins values, the source holds several entries; their conditions need not be identical. Identical values can stand only once. Toxic doses and inconclusive results are not listed. Rule for the calls: active = survival T/C of 150% or more; inactive = T/C below 125% in these data.

Tested on: P388 leukemia ip, CD2F1 mice, survival T/C
Assay: NCI In Vivo Anticancer Drug Screen. Data for tumor model P388 Leukemia (intraperitoneal) in CD2F1 (CDF1) mice
Conditions: endpoint: median survival time, higher = longer survival
Summary of the method: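 Mice carrying the transplanted tumor received test compound or vehicle. Survival was recorded in each group, and the value is the treated-group measurement divided by that of the vehicle-treated control group.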

[1] = dose: 60.0 mg/kg/injection, schedule: Q01DX005 (ip), vehicle: saline with Tween-80
[2] = dose: 120.0 mg/kg/injection, schedule: Q01DX005 (ip), vehicle: saline with Tween-80
[3] = dose: 240.0 mg/kg/injection, schedule: Q01DX005 (ip), vehicle: saline with Tween-80
[4] = dose: 25.0 mg/kg/injection, schedule: Q01DX009 (ip), vehicle: saline with Tween-80
[5] = dose: 50.0 mg/kg/injection, schedule: Q01DX009 (ip), vehicle: saline with Tween-80
[6] = dose: 50.0 mg/kg/injection, schedule: Q01DX005 (ip), vehicle: Klucel (hydroxypropylcellulose) (HPC)
[7] = dose: 100.0 mg/kg/injection, schedule: Q01DX005 (ip), vehicle: Klucel (hydroxypropylcellulose) (HPC)
[8] = dose: 50.0 mg/kg/injection, schedule: Q01DX009 (ip), vehicle: Klucel (hydroxypropylcellulose) (HPC)
[9] = dose: 100.0 mg/kg/injection, schedule: Q01DX009 (ip), vehicle: Klucel (hydroxypropylcellulose) (HPC)
[10] = dose: 200.0 mg/kg/injection, schedule: Q01DX009 (ip), vehicle: Klucel (hydroxypropylcellulose) (HPC)
[11] = dose: 100.0 mg/kg/injection, schedule: Q04DX003 (ip), vehicle: saline
[12] = dose: 200.0 mg/kg/injection, schedule: Q04DX003 (ip), vehicle: saline
[13] = dose: 400.0 mg/kg/injection, schedule: Q04DX003 (ip), vehicle: saline
[14] = dose: 200.0 mg/kg/injection, schedule: Q01DX005 (ip), vehicle: Klucel (hydroxypropylcellulose) (HPC)
[15] = dose: 25.0 mg/kg/injection, schedule: Q01DX009 (ip), vehicle: other
[16] = dose: 50.0 mg/kg/injection, schedule: Q01DX009 (ip), vehicle: other
[17] = dose: 100.0 mg/kg/injection, schedule: Q01DX009 (ip), vehicle: other
[18] = dose: 200.0 mg/kg/injection, schedule: Q01DX009 (ip), vehicle: other
[19] = dose: 25.0 mg/kg/injection, schedule: Q01DX009 (ip), vehicle: distilled water + Tween-80
[20] = dose: 50.0 mg/kg/injection, schedule: Q01DX009 (ip), vehicle: distilled water + Tween-80
[21] = dose: 100.0 mg/kg/injection, schedule: Q01DX009 (ip), vehicle: distilled water + Tween-80
[22] = dose: 200.0 mg/kg/injection, schedule: Q01DX009 (ip), vehicle: distilled water + Tween-80
[23] = dose: 400.0 mg/kg/injection, schedule: Q01DX009 (ip), vehicle: distilled water + Tween-80

Measured: T/C

CCOC(=O)c1ccc(N2C(C(=O)OCC)Nc3ccc(C(=O)OCC)cc3C2C(=O)OCC)cc1 (stereo not drawn)
inactive: dose: 100.0 mg/kg/injection, schedule: Q04DX002 (ip), vehicle: Klucel (hydroxypropylcellulose) (HPC) 97 % of control | dose: 200.0 mg/kg/injection, schedule: Q04DX002 (ip), vehicle: Klucel (hydroxypropylcellulose) (HPC) 88 % of control

NC(=O)C1CCCN1C(=O)/C=C\c1ccccc1 (stereo not drawn)
inactive: [1] 109 % of control | [2] 112 % of control | [3] 101 % of control

Cc1ccc(NC(=O)N2c3ccccc3SC2c2ccco2)c(C)c1 (stereo not drawn)
inactive: dose: 12.5 mg/kg/injection, schedule: Q01DX009 (ip), vehicle: saline with Tween-80 92 % of control | [4] 103 % of control | [5] 86 % of control and 92 % of control

O=c1[nH]cnc(O)c1C1C=CC=CC=C1
inactive: [6] 105 % of control | [7] 114 % of control

O=c1c2ccccc2c(=O)n2c(=O)c3ccccc3c(=O)n12
inactive: [8] 100 % of control | [9] 100 % of control | [10] 104 % of control | dose: 400.0 mg/kg/injection, schedule: Q01DX009 (ip), vehicle: Klucel (hydroxypropylcellulose) (HPC) 103 % of control

COc1ccc(C(c2cc3c(cc2O)OCO3)N2CCN(C(c3ccc(OC)c(OC)c3)c3cc4c(cc3O)OCO4)CC2)cc1OC (stereo not drawn)
inactive: dose: 60.0 mg/kg/injection, schedule: Q01DX005 (ip), vehicle: Klucel (hydroxypropylcellulose) (HPC) 89 % of control | dose: 120.0 mg/kg/injection, schedule: Q01DX005 (ip), vehicle: Klucel (hydroxypropylcellulose) (HPC) 90 % of control | dose: 240.0 mg/kg/injection, schedule: Q01DX005 (ip), vehicle: Klucel (hydroxypropylcellulose) (HPC) 105 % of control

CC(/C=C/c1ccccc1)=N\Nc1c(F)c(F)c(F)c(F)c1F
inactive: [8] 103 % of control | [9] 102 % of control | [10] 100 % of control

C1CCC2(CC1)CSSC2
inactive: dose: 6.25 mg/kg/injection, schedule: Q04DX002 (ip), vehicle: saline with Tween-80 101 % of control | dose: 12.5 mg/kg/injection, schedule: Q04DX002 (ip), vehicle: saline with Tween-80 99 % of control

N=C(N)N=Nc1ccc(O)cc1
inactive: [2] 119 % of control

O=C(O)c1ccccc1Oc1ccccc1C(=O)O
inactive: [11] 100 % of control | [12] 100 % of control | [13] 100 % of control

CCOC(=O)N1CCc2cc(OC)c(OC)cc2/C1=C/c1ccsc1
inactive: [6] 105 % of control | [7] 102 % of control | [14] 96 % of control

CC(C)CC1C(=O)N2CCCC2C2(O)OC(NC(=O)C3C=C4c5cccc6[nH]cc(c56)CC4N(C)C3)(C(C)C)C(=O)N12 (stereo not drawn)
inactive: dose: 2.5 mg/kg/injection, schedule: Q01DX009 (ip), vehicle: Klucel (hydroxypropylcellulose) (HPC) 91 % of control | dose: 5.0 mg/kg/injection, schedule: Q01DX009 (ip), vehicle: Klucel (hydroxypropylcellulose) (HPC) 90 % of control | dose: 20.0 mg/kg/injection, schedule: Q01DX009 (ip), vehicle: Klucel (hydroxypropylcellulose) (HPC) 99 % of control | dose: 40.0 mg/kg/injection, schedule: Q01DX009 (ip), vehicle: Klucel (hydroxypropylcellulose) (HPC) 101 % of control

CCCCCCC[n+]1ccccc1C#N
inactive: dose: 12.5 mg/kg/injection, schedule: Q04DX003 (ip), vehicle: saline with Tween-80 103 % of control and 107 % of control | dose: 25.0 mg/kg/injection, schedule: Q04DX003 (ip), vehicle: saline with Tween-80 100 % of control and 103 % of control | dose: 50.0 mg/kg/injection, schedule: Q04DX003 (ip), vehicle: saline with Tween-80 103 % of control | dose: 100.0 mg/kg/injection, schedule: Q04DX003 (ip), vehicle: saline with Tween-80 100 % of control and 118 % of control | dose: 200.0 mg/kg/injection, schedule: Q04DX003 (ip), vehicle: saline with Tween-80 99 % of control

Cc1nc(O)c([N+](=O)[O-])c(=O)[nH]1
inactive: [15] 99 % of control | [16] 98 % of control | [17] 110 % of control | [18] 102 % of control

COC(=O)[C@@]12OC[C@]34[C@H]([C@@H](O)[C@@H]1O)[C@@]1(C)CC(=O)C(O)=C(C)[C@@H]1C[C@H]3OC(=O)[C@H](OC(=O)/C=C(\C)C(C)CO)[C@@H]24 (stereo partly drawn)
inactive: dose: 0.5 mg/kg/injection, schedule: Q01DX009 (ip), vehicle: saline + alcohol 115 % of control

COC(=O)C1=[N+]([O-])OC(C(=O)OC)C1c1ccc(F)cc1 (stereo not drawn)
inactive: [1] 93 % of control | [2] 90 % of control | [3] 94 % of control

C/C=C1/CN2CCC34c5ccccc5N(C)C23C(O)CC1C4(CO)C(=O)OC (stereo not drawn)
inactive: dose: 13.75 mg/kg/injection, schedule: Q01DX005 (ip), vehicle: saline + Tween-80 + alcohol 106 % of control | dose: 27.5 mg/kg/injection, schedule: Q01DX005 (ip), vehicle: saline + Tween-80 + alcohol 102 % of control | dose: 55.0 mg/kg/injection, schedule: Q01DX005 (ip), vehicle: saline + Tween-80 + alcohol 110 % of control | dose: 110.0 mg/kg/injection, schedule: Q01DX005 (ip), vehicle: saline + Tween-80 + alcohol 100 % of control

CSc1ccc2c(=O)c(C(=O)O)c[nH]c2c1
inactive: [11] 108 % of control | [12] 99 % of control | [13] 107 % of control

Cc1c(Cl)cc[n+]([O-])c1C
inactive: [15] 100 % of control | [16] 108 % of control | [17] 108 % of control | [18] 107 % of control | dose: 400.0 mg/kg/injection, schedule: Q01DX009 (ip), vehicle: other 110 % of control

COc1ccc2nc(-c3ccccn3)ccc2c1
inactive: [19] 106 % of control | [20] 106 % of control | [21] 101 % of control | [22] 93 % of control | [23] 92 % of control

CCOC(=O)c1ccc[nH]1
inactive: [4] 104 % of control | [5] 108 % of control | dose: 100.0 mg/kg/injection, schedule: Q01DX009 (ip), vehicle: saline with Tween-80 112 % of control | dose: 200.0 mg/kg/injection, schedule: Q01DX009 (ip), vehicle: saline with Tween-80 103 % of control

COc1cc(OC)c(NC(=O)C(Sc2nc(C)cc(C)c2C#N)c2ccccc2)cc1Cl (stereo not drawn)
inactive: dose: 12.5 mg/kg/injection, schedule: Q01DX005 (ip), vehicle: Klucel (hydroxypropylcellulose) (HPC) 89 % of control | dose: 25.0 mg/kg/injection, schedule: Q01DX005 (ip), vehicle: Klucel (hydroxypropylcellulose) (HPC) 92 % of control and 93 % of control | [6] 100 % of control and 93 % of control | [7] 98 % of control | [14] 87 % of control

CC(=O)OCc1ccncc1
inactive: dose: 12.5 mg/kg/injection, schedule: Q01DX009 (ip), vehicle: distilled water + Tween-80 95 % of control | [19] 101 % of control | [20] 102 % of control | [21] 110 % of control | [22] 100 % of control | [23] 92 % of control
